Results published in patent US9340542B2, “Propellane-based compounds and the use thereof” (Purdue Pharma L.P., priority 2013, dated 2016).
Read-outs that look alike come from different tables or passages of the source.

Columns and labels:
κ opioid receptor [1] = biological target: T1, κ opioid receptor (Homo sapiens (Human), UniProt P41145); assay: κ-opioid receptor radioligand dose-displacement binding assay ([3H]-U69,593); conditions: binding affinity
Description: Membranes from HEK-293 cells, CHO or U-2 OS cells expressing the recombinant human κ opioid receptor (κ) were prepared by lysing cells in ice cold hypotonic buffer (2.5 mM MgCl2, 50 mM HEPES, pH 7.4) (10 mL/10 cm dish) followed by homogenization with a tissue grinder/Teflon pestle. Membranes were collected by centrifugation at 30,000×g for 15 min at 4° C. and pellets were resuspended in hypotonic buffer to a final concentration of 1-3 mg/mL. Protein concentrations were determined using the BioRad protein assay reagent with bovine serum albumen as standard. Aliquots of κ receptor membranes were stored at −80° C.
Radioligand dose displacement assays used 0.4 nM [^3H]-U69,593 (GE Healthcare, Piscataway, N.J.; 40 Ci/mmole) with 15 μg membrane protein (recombinant κ opioid receptor expressed in HEK 293 cells; in-house prep) in a final volume of 200 μl binding buffer (5% DMSO, 50 mM Trizma base, pH 7.4). Non-specific binding was determined in the presence of 10 μM unlabeled naloxone or U69,593. All reactions were performed in 96-well polypropylene plates for 1 hour at a temperature of about 25° C. Binding reactions were terminated by rapid filtration onto 96-well Unifilter GF/C filter plates (Perkin Elmer, Shelton, Conn.) presoaked in 0.5% polyethylenimine (Sigma). Harvesting was performed using a 96-well tissue harvester (Perkin Elmer, Shelton, Conn.) followed by five filtration washes with 200 μl ice-cold binding buffer. Filter plates were subsequently dried at 50° C. for 1-2 hours. Fifty μl/well scintillation cocktail (Perkin Elmer, Shelton, Conn.) was added and plates were counted in a Packard Top-Count for 1 min/well.
(§1) In TABLE 1, binding affinity of certain Compounds of the Invention to the μ- and κ-opioid receptors was determined as described above.

μ-opioid receptor [2] = biological target: T2, μ-opioid receptor (Homo sapiens (Human), UniProt P35372); assay: μ-opioid receptor radioligand dose-displacement binding assay ([3H]-diprenorphine); conditions: binding affinity
Description: Radioligand dose-displacement binding assays for μ-opioid receptors used 0.3 nM [^3H]-diprenorphine (Perkin Elmer, Shelton, Conn.), with […] membrane protein/well in a final volume of 500 μl binding buffer (10 mM MgCl2, 1 mM EDTA, 5% DMSO, 50 mM HEPES, pH 7.4). Reactions were carried out in the absence or presence of increasing concentrations of unlabeled naloxone. All reactions were conducted in 96-deep well polypropylene plates for 2 hours at room temperature. Binding reactions were terminated by rapid filtration onto 96-well Unifilter GF/C filter plates (Perkin Elmer, Shelton, Conn.), presoaked in 0.5% polyethylenimine using a 96-well tissue harvester (Perkin Elmer, Shelton, Conn.) followed by performing three filtration washes with 500 μl of ice-cold binding buffer. Filter plates were subsequently dried at 50° C. for 2-3 hours. BetaScint scintillation cocktail (Perkin Elmer, Shelton, Conn.) was added (50 μl/well), and plates were counted using a Packard Top-Count for 1 min/well. The data were analyzed using the one-site competition curve fitting functions in GraphPad PRISM™ v. 3.0 or higher (San Diego, Calif.), or an in-house function for one-site competition curve-fitting.
as §1

κ opioid receptor [3] = biological target: T1, κ opioid receptor; assay: κ-opioid receptor [35S]GTPγS functional assay; format: biochemical; conditions: for EC50: GTPγS functional assay using U-2 OS cells; for Emax: maximal effect relative to U69,593, U-2 OS cells
Description: Functional [^35S]GTPγS binding assays were conducted as follows. κ opioid receptor membrane solution was prepared by sequentially adding final concentrations of 0.026 μg/μl κ membrane protein (in-house), 10 μg/mL saponin, 3 μM GDP and 0.20 nM [^35S]GTPγS to binding buffer (100 mM NaCl, 10 mM MgCl2, 20 mM HEPES, pH 7.4) on ice. The prepared membrane solution (190 μl/well) was transferred to 96-shallow well polypropylene plates containing 10 μl of 20× concentrated stock solutions of agonist prepared in DMSO. Plates were incubated for 30 min at a temperature of about 25° C. with shaking. Reactions were terminated by rapid filtration onto 96-well Unifilter GF/B filter plates (Perkin Elmer, Shelton, Conn.) using a 96-well tissue harvester (Packard) and followed by three filtration washes with 200 μl ice-cold binding buffer (10 mM NaH2PO4, 10 mM Na2HPO4, pH 7.4). Filter plates were subsequently dried at 50° C. for 2-3 hours. Fifty μl/well scintillation cocktail (Perkin Elmer, Shelton, Conn.) was added and plates were counted in a Packard Top-Count for 1 min/well.
κ GTP EC50 is the concentration of a compound providing 50% of the maximal response for the compound at a κ receptor.
κ GTP Emax (%) is the maximal effect elicited by a compound relative to the effect elicited by U69,593.
(§2) In TABLE 2, activity response of certain Compounds of the Invention to the μ- and κ-opioid receptors was determined as described above for functional assays using U-2 OS cells.

μ-opioid receptor [4] = biological target: T2, μ-opioid receptor; assay: μ-opioid receptor [35S]GTPγS functional assay; format: biochemical; conditions: for EC50: GTPγS functional assay using U-2 OS cells; for Emax: maximal effect relative to DAMGO, U-2 OS cells
Description: [^35S]GTPγS functional assays were conducted using freshly thawed p-receptor membranes prepared in-house from a cell line expressing recombinant μ opioid receptor in a HEK-293, CHO or U-2 OS cell background, or purchased from a commercial source (Perkin Elmer, Shelton. Conn.; or DiscovRx, Fremont, Calif.). Assay reactions were prepared by sequentially adding the following reagents to binding buffer (100 mM NaCl, 10 mM MgCl2, 20 mM HEPES, pH 7.4) on ice (final concentrations indicated): membrane protein ([…]), saponin ([…]), GDP ([…]) and [^35S]GTPγS (0.20 nM; Perkin Elmer, Shelton, Conn.). The prepared membrane solution (190 μl/well) was transferred to 96-shallow well polypropylene plates containing 10 μl of 20× concentrated stock solutions of the agonist [D-Ala^2, N-methyl-Phe^4 Gly-ol^5]-enkephalin (DAMGO) prepared in dimethyl sulfoxide (DMSO). Plates were incubated for 30 min at about 25° C. with shaking. Reactions were terminated by rapid filtration onto 96-well Unifilter GF/B filter plates (Perkin Elmer, Shelton, Conn.) using a 96-well tissue harvester (Perkin Elmer, Shelton, Conn.) followed by three filtration washes with 200 μl of ice-cold wash buffer (10 mM NaH2PO4, 10 mM Na2HPO4, pH 7.4). Filter plates were subsequently dried at 50° C. for 2-3 hours. BetaScint scintillation cocktail (Perkin Elmer, Shelton, Conn.) was added (50 μl/well) and plates were counted using a Packard Top-Count for 1 min/well. Data were analyzed using the sigmoidal dose-response curve fitting functions in GraphPad PRISM v. 3.0, or an in-house function for non-linear, sigmoidal dose-response curve-fitting.
μ GTP EC50 is the concentration of a compound providing 50% of the maximal response for the compound at a […] receptor.
μ GTP Emax (%) is the maximal effect elicited by a compound relative to the effect elicited by DAMGO, a standard μ agonist. Generally, the μ GTP Emax (%) value measures the efficacy of a compound to treat or prevent pain or other Conditions.
as §2

[5] = read-out: Opioid Receptor Ki (nM) μ

| SMILES | Ki (κ opioid receptor [1]) [nM] | Ki (μ-opioid receptor [2]; [5]) [nM] | EC50 (κ opioid receptor [3]) [nM] | Emax (κ opioid receptor [3]) [%] | EC50 (μ-opioid receptor [4]) [nM] | Emax (μ-opioid receptor [4]) [%] | Ki (μ-opioid receptor [2]; read-out: Opioid Receptor Ki μ) [nM] |
| --- | --- | --- | --- | --- | --- | --- | --- |
| COC(=O)c1cc2c([nH]c1=O)C[C@@]13CCN(CC4CC4)C[C@@]1(Cc1ccc(OC)cc13)C2 [Compound 5, (5aS,10bR)-methyl 14-(cyclopropylmethyl)-9-methoxy-2-oxo-2,5,6,11-tetrahydro-1H-10b,5a-(ethanoiminomethano)indeno[2,1-g]quinoline-3-carboxylate] | 3600 ± 882 | 9550 ± 1870 |  |  |  |  |  |
| O=C1NC(=O)[C@]2(CC[C@@]34Cc5ccc(O)cc5[C@@]3(CCN(CC3CC3)C4)C2)N1 [Compound 9, (3R,4aR,9aR)-11-(cyclopropylmethyl)-6-hydroxy-1,2,4,9-tetrahydrospiro[4a,9a-(ethanoiminomethano)fluorene-3,4′-imidazolidine]-2′,5′-dione] | 148 ± 25.2 | 676 ± 74.1 | 318.8 ± 1.38 | 109 ± 7.09 | 309 ± 36.3 | 94 ± 3.06 |  |
| COc1ccc2c(c1)[C@]13CCN(CC4CC4)C[C@]1(CC[C@]1(C3)NC(=O)NC1=O)C2 [Compound 3] | 8410 ± 650 |  |  |  |  |  | > 20000 |
| O=C1NC(=O)[C@@]2(CC[C@@]34Cc5ccc(O)cc5[C@@]3(CCN(CC3CC3)C4)C2)N1 [Compound 8, (3S,4aR,9aR)-11-(cyclopropylmethyl)-6-hydroxy-1,2,4,9-tetrahydrospiro[4a,9a-(ethanoiminomethano)fluorene-3,4′-imidazolidine]-2′,5′-dione] | 72.5 ± 18.3 | 472 ± 93 | 384 ± 36.9 | 119 ± 4.41 | 414 ± 62.8 | 86.7 ± 1.67 |  |
| COc1ccc2c(c1)[C@]13CCN(CC4CC4)C[C@@]1(C2)Cc1cc(C(N)=O)c(=O)[nH]c1C3 [Compound 6, (5aS,10bR)-14-(cyclopropylmethyl)-9-methoxy-2-oxo-2,5,6,11-tetrahydro-1H-10b,5a-(ethanoiminomethano)indeno[2,1-g]quinoline-3-carboxamide] | 4280 ± 1090 | 15600 |  |  |  |  |  |
| COc1ccc2c(c1)[C@]13CCN(CC4CC4)C[C@]1(CC[C@@]1(C3)NC(=O)NC1=O)C2 [Compound 2, (3S,4aR,9,aR)-11-(cyclopropylmethyl)-6-methoxy-1,2,4,9-tetrahydrospiro[4a,9a-(ethanoiminomethano)fluorene-3,4′-imidazolidine]-2′,5′-dione] | 4760 ± 1110 | 6250 ± 874 |  |  |  |  |  |
| NC(=O)c1cc2c([nH]c1=O)C[C@@]13CCN(CC4CC4)C[C@@]1(Cc1ccc(O)cc13)C2 [Compound 7, (5aS,10bR)-14-(cyclopropylmethyl)-9-hydroxy-2-oxo-2,5,6,11-tetrabydro-1H-10b,5a-(ethanoiminomethano)indeno[2,1-g]quinoline-3-carboxamide] | 148 ± 39.8 | 770 ± 102 | 570 ± 85.4 | 103 ± 5.21 | 412 ± 66.4 | 19.3 ± 3.18 |  |
